Results taken from ChEMBL document CHEMBL1201862, “PubChem BioAssay data set” (2004).
Active and inactive are the calls of the source.

Key:
Genome polyprotein = Genome polyprotein (dengue virus type 2, UniProt P29990); test: flavivirus cap methylation enzyme inhibition – biochemical, confirmation dose response, primary screen (AID 588689); assay type: functional
Protein RecA = molecular target: T1, Protein RecA (Mycobacterium tuberculosis, UniProt P9WHJ3); test: Fluorescence Cell-Free Homogeneous Dose Retest to Identify Inhibitors of RecA-Intein Splicing Activity. [Related pubchem assays (depositor defined):AID2097, AID2223, AID489010, AID492950]; assay type: functional
T1 sequence (P9WHJ3 whole entry): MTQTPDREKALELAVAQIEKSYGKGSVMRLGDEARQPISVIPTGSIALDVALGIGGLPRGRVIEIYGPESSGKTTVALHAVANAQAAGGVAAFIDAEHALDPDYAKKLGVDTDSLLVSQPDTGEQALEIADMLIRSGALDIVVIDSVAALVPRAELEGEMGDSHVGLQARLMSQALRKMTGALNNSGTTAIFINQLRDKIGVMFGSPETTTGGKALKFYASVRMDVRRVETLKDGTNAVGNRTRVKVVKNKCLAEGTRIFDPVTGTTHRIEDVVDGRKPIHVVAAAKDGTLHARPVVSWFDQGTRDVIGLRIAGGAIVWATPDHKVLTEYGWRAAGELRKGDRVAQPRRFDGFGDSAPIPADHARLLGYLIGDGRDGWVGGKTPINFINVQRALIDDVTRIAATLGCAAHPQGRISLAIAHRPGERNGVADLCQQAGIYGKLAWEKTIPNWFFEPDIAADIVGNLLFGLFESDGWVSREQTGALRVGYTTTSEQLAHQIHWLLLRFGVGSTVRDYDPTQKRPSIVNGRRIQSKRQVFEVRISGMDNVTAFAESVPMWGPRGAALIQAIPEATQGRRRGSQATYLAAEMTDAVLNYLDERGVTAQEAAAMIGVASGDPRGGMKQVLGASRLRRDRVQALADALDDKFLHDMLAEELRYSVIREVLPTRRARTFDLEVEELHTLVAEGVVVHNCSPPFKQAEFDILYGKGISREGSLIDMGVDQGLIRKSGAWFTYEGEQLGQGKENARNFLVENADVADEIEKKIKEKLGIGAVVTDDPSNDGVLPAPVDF

[1] = molecular target: T2, Replicative DNA helicase DnaB (Mycobacterium tuberculosis, UniProt P9WMR3); test: DnaB intein splicing inhibitors, dose response, biochemical, cell-free fluorescence (AID 449749); assay type: functional
T2 sequence (P9WMR3 whole entry): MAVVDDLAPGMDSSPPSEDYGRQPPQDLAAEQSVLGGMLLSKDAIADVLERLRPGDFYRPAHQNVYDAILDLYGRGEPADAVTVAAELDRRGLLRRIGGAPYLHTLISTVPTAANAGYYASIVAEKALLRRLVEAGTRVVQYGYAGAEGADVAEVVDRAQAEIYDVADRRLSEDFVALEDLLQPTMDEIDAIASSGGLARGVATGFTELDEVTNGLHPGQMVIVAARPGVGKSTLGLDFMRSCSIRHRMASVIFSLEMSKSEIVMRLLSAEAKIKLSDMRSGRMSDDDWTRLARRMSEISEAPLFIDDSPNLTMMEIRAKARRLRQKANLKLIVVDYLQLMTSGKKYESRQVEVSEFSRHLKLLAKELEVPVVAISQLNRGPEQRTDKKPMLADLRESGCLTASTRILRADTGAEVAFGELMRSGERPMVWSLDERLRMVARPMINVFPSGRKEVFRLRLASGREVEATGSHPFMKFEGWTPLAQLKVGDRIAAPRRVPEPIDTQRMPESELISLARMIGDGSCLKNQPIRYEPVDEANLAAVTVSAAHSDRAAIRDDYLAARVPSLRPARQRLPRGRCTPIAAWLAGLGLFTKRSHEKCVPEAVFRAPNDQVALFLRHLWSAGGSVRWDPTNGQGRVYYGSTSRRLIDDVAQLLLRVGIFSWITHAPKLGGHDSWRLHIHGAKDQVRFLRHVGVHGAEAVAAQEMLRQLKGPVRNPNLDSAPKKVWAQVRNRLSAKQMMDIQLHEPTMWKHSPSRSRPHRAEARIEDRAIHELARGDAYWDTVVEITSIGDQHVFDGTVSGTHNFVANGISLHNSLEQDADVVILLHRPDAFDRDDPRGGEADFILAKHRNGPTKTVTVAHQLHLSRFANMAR

Cytochrome P450 2C9 = Cytochrome P450 2C9 (Homo sapiens, UniProt P11712)
Cytochrome P450 2C9, sequence (P11712 whole entry): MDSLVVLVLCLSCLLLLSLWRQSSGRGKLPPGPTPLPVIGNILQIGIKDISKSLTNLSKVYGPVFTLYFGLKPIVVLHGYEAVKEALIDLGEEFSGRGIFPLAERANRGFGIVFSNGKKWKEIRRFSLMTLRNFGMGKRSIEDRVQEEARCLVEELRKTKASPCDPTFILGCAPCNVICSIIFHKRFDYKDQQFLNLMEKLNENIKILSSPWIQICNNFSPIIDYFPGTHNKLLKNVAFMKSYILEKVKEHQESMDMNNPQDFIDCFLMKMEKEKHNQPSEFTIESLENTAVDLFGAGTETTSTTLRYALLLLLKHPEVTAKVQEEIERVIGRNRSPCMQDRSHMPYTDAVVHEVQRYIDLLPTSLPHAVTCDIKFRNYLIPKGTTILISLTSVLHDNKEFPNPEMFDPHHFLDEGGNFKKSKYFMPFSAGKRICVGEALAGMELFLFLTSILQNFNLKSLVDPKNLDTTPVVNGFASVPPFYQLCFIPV

Cytochrome P450 2D6 = Cytochrome P450 2D6 (Homo sapiens, UniProt P10635);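 further: CYP2D6 member of a cytochrome P450 panel assay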
Cytochrome P450 2D6, sequence (P10635 whole entry): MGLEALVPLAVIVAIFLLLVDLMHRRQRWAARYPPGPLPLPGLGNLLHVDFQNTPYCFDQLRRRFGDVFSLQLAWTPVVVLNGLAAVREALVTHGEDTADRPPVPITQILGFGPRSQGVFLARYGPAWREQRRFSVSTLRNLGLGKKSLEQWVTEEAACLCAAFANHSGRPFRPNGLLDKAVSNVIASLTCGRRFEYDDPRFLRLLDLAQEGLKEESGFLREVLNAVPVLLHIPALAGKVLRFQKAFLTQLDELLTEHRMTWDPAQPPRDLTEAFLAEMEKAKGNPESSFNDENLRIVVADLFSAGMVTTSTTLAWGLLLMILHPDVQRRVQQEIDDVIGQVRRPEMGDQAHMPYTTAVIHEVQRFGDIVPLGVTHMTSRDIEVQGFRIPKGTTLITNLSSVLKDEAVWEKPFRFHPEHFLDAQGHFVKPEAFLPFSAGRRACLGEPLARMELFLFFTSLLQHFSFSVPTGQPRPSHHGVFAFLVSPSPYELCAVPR

Cytochrome P450 2C19 = Cytochrome P450 2C19 (Homo sapiens, UniProt P33261); test: Cytochrome panel assay with activity outcomes. Panel member name: p450-cyp2c19 Compounds with AC50 equal or less than 10 uM are considered active; assay type: functional; conditions: read-out: AC50
Cytochrome P450 2C19, sequence (P33261 whole entry): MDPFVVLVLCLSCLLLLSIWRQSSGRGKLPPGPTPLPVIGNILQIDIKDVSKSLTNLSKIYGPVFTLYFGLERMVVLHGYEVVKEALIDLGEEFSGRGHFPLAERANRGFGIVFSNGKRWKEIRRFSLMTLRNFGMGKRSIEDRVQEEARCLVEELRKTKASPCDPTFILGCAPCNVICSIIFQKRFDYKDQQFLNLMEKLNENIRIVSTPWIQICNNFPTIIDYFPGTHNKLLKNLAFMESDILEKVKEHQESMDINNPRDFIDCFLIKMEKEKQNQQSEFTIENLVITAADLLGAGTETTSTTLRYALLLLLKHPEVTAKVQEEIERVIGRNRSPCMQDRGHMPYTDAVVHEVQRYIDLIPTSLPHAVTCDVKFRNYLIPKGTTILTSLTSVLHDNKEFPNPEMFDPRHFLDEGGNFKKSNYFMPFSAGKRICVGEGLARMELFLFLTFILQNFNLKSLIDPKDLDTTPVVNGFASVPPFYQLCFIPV

[2] = Luminescence Cell-Based Dose Response HTS to Identify Inhibitors of 5'UTR Stem-Loop Driven Prion Protein mRNA Translation in H4 Neuroglioblastoma Cells. [Related pubchem assays: 1827 (Project Summary), 1813 (Primary HTS)]; assay type: functional
Cytochrome P450 1A2 = molecular target: T3, Cytochrome P450 1A2 (Homo sapiens, UniProt P05177);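 further: PubChem cytochrome P450 panel assay, CYP1A2 panel member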
T3 sequence (P05177 whole entry): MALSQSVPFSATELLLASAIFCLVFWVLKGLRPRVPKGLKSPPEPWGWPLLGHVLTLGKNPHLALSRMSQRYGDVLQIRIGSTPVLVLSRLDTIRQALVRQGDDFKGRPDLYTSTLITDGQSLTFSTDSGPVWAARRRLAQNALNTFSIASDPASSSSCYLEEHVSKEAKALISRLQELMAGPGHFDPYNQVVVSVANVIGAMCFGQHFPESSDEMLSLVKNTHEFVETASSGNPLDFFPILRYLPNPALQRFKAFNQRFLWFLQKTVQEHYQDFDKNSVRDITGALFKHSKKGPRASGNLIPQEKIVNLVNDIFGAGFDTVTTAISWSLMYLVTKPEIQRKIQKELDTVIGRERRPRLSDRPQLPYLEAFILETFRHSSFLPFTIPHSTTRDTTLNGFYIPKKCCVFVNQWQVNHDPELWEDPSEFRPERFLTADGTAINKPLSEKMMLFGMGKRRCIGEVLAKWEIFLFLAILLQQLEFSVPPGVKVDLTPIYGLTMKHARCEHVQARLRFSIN

[3] = NIH3T3 cell viability loss – ATP luminescence, mouse fibroblasts, counter-screen, dose response (AID 2010); assay type: functional, cell-based;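 further: cells exposed to compound for about 90 hours before reading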
[4] = molecular target: T4, High affinity choline transporter 1 (Homo sapiens, UniProt Q9GZV3); test: human choline transporter blockers, potency – cell-based, 5-point CRC, membrane potential dye, dose response (AID 504840); assay type: functional
T4 sequence (Q9GZV3 whole entry): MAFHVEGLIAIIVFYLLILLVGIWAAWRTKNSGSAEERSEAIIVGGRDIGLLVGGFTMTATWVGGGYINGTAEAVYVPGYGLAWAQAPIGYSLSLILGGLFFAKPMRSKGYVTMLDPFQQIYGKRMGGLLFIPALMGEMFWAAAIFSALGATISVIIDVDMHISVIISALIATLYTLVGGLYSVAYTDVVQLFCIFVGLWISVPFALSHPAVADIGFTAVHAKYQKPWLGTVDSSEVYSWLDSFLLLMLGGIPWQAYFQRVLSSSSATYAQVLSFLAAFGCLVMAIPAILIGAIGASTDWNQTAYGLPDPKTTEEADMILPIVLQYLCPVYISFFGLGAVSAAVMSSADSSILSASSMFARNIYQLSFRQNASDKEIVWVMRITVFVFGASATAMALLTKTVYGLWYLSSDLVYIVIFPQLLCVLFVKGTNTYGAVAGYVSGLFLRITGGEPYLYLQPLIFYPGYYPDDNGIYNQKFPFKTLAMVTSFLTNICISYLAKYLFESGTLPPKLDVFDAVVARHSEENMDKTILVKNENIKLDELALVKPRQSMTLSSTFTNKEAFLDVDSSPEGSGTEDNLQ

[5] = Trypanosoma cruzi growth suppression in host cells – NIH3T3 host cells, beta-gal luminescence, confirmation (AID 2044); assay type: functional, cell-based;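 further: intracellular parasites grown in NIH/3T3 mouse fibroblasts as host cells; luminescent beta-galactosidase reporter signal from transgenic T. cruzi replicating inside host cells; inhibitors lower the luminescence signal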
Cytochrome P450 3A4 = Cytochrome P450 3A4 (Homo sapiens, UniProt P08684);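 further: CYP3A4 tested as one member of a cytochrome P450 panel screen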
Cytochrome P450 3A4, sequence (P08684 whole entry): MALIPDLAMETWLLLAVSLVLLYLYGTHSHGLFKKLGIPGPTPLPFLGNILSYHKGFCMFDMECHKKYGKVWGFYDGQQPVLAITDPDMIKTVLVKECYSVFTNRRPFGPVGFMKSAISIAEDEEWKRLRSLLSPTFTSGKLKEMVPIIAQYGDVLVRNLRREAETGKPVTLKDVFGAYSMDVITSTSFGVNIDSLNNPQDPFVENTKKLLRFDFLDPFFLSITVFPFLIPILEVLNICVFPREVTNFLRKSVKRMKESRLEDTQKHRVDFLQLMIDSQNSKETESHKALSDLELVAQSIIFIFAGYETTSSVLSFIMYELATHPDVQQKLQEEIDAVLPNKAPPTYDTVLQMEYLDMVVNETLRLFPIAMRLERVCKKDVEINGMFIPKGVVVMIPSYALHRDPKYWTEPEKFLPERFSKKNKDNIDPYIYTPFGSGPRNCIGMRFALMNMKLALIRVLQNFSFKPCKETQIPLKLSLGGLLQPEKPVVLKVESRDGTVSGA

cells = assay type: functional
[6] = reduction of Shn3 3'UTR-driven luciferase in osteoblasts – cell-based, Clone20 osteoblasts, firefly luciferase, cherry-picked, dose response (AID 624132); assay type: functional;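 further: firefly luciferase luminescence from reporter carrying the Shn3 3'UTR in osteoblasts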
[7] = loss of viability in HepG2 cells – cell-based, CellTiter-Glo, cherry-picked, cytotoxicity control for Shn3 inhibitor project, dose response (AID 624134); assay type: functional
[8] = non-specific 3'UTR reporter inhibition in Clone20-Shn3RL – cell-based, Renilla luciferase, cherry-picked, counter-screen for Shn3 inhibitor project, dose response (AID 624133); assay type: functional

Genome polyprotein, sequence (P29990 2492-3391 limits assumed): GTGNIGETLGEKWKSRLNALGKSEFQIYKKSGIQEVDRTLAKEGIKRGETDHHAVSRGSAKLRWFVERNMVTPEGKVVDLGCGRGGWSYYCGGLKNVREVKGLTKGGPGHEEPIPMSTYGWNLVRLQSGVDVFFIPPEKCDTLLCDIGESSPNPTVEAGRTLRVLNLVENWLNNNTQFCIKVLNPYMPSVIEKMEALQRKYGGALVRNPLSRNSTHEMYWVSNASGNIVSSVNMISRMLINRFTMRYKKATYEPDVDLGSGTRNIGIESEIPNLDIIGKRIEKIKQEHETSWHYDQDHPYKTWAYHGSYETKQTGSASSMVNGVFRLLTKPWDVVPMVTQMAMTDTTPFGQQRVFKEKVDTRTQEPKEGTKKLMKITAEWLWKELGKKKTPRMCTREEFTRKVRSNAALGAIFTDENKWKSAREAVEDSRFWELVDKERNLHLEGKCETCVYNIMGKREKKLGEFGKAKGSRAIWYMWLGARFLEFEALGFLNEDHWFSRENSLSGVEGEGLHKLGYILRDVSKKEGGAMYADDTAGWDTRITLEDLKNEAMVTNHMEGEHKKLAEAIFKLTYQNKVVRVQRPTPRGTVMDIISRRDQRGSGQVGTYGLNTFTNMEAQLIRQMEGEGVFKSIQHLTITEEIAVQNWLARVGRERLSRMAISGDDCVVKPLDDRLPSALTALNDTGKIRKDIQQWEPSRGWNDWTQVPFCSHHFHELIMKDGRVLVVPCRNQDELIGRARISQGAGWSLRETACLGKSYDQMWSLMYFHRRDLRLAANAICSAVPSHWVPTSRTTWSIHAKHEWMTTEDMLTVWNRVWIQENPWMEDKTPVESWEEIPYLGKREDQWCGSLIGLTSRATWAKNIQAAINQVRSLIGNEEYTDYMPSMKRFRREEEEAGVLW

## C#CCOc1c(Cl)cc(/C=C2/C(=O)ON=C2C)cc1OCC
Genome polyprotein
  IC50: > 100 µM (active)

## O=C1NC(=O)C(=Cc2cc3c(cc2[N+](=O)[O-])OCO3)C(=O)N1
Genome polyprotein
  IC50: 21.4 µM (active)
Protein RecA
  EC50: > 380 µM (inconclusive)
[1]
  AC50: > 380 µM (inactive)

## O=C(OC[C@@H](O)CO)c1ccccc1Nc1ccnc2cc(Cl)ccc12
Cytochrome P450 2C9
  AC50: 15.8 µM (inconclusive)
Cytochrome P450 2D6
  AC50: 12.6 µM (inconclusive)
Cytochrome P450 2C19
  AC50: 3.98 µM (inconclusive)

## CC#CC(=O)N1CCC(CCc2ccccc2)(C(=O)OCC)CC1
[2]
  EC50: > 120 µM (not active)

## CCCCCC1=C2CNC(C)(C(=O)OC)C=C2C(C)C1=O (stereo not drawn)
Cytochrome P450 1A2
  AC50: 25.1 µM (inconclusive)
Cytochrome P450 2C9
  AC50: 31.6 µM (inconclusive)
Cytochrome P450 2D6
  AC50: 25.1 µM (inconclusive)

## O=C(Nc1ccc(S(=O)(=O)N2CCOCC2)cc1)c1ccc([N+](=O)[O-])cc1Cl
[3]
  EC50: > 30 µM (not active)
[4]
  IC50: 15.1 µM (active)
[5]
  EC50: 0.867 µM (active)

## CO[C@H]1C=C2CCN(C)[C@@H]2[C@@H]2c3cc4c(cc3C(=O)O[C@H]21)OCO4
Cytochrome P450 1A2
  AC50: 12.6 µM (inconclusive)
Cytochrome P450 2D6
  AC50: 10 µM (inconclusive)

## N#Cc1c(NC(=O)C(F)(F)F)sc2c3c(=O)c4ccccc4c(=O)c=3oc3ccccc3c12
Cytochrome P450 3A4
  AC50: 3.98 µM (inconclusive)
Cytochrome P450 2D6
  AC50: 0.794 µM (inconclusive)

## O=C(COc1ccccc1)Nc1nnc(-c2ccc(Cl)cc2)o1
cells
  IC50: 34.6 µM (active)

## Nc1nonc1C(=O)NCCNCc1cc(Br)ccc1OCc1ccc(F)cc1
[6]
  AC50: 3.74 µM (active)
[7]
  AC50: 38.6 µM (active)
[8]
  AC50: 8.32 µM (active)

## Clc1ccc(C[n+]2cc(-c3ccccc3)n3c2CCCCC3)c(Cl)c1
[6]
  AC50: 1.2 µM (active)
[3]
  EC50: 15.3 µM (active)
[7]
  AC50: > 70 µM (inactive)
[5]
  EC50: 0.273 µM (active)
[8]
  AC50: 1.21 µM (active)

## O=C1OC(c2ccccc2)C(C(=O)c2ccc(Cl)cc2)=C1O (stereo not drawn)
Genome polyprotein
  IC50: 83.4 µM (active)
